The record followed here is the supplement of paper PMC12532568.

In this test the test system is Danio rerio larvae Tg(actc1b:ZsGreen-LC3), 3 dpf. The experiment in a line: LC3 puncta relative area vs vehicle (mean) (log2 fold change); higher = more autophagy. The following applies: treatment time 16 h. As to the method:
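Transgenic ZsGreen-LC3 zebrafish larvae (2 dpf) were treated for 16 h with natural bioactives at 10, 50, 100 or 250 µM. Skeletal-muscle LC3 puncta area was measured by high-content imaging with or without 4 h of 100 mM NH4Cl, normalised to vehicle, and reported as the mean log2 fold change over 4–21 larvae.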

Turning to `NC(=O)c1ccc[n+]([C@@H]2O[C@H](COP(=O)([O-])O)[C@@H](O)[C@H]2O)c1` [Nicotinamide mononucleotide], the “LC3 puncta (log2)” value by setting is: (NH4Cl: + NH4Cl, 10 µM) 1.01; (NH4Cl: + NH4Cl, 50 µM) 0.775; (NH4Cl: + NH4Cl, 100 µM) 0.349; (NH4Cl: + NH4Cl, 250 µM) 0.19; (NH4Cl: - NH4Cl, 10 µM) -0.0834; (NH4Cl: - NH4Cl, 50 µM) -0.119. The “LC3 puncta (log2)” value (NH4Cl: - NH4Cl, 100 µM) was -0.518 and the “LC3 puncta (log2)” value (NH4Cl: - NH4Cl, 250 µM) was -0.271.

On to `Oc1cc(O)c2c(c1)O[C@H](c1ccc(O)c(O)c1)[C@H](O)C2` [(-)-Epicatechin], for which the “LC3 puncta (log2)” value (NH4Cl: + NH4Cl, 10 µM) was 0.954; the “LC3 puncta (log2)” value (NH4Cl: + NH4Cl, 50 µM) is 0.317; the “LC3 puncta (log2)” value (NH4Cl: + NH4Cl, 100 µM) worked out at 0.232; the “LC3 puncta (log2)” value (NH4Cl: + NH4Cl, 250 µM) was 0.0319; the “LC3 puncta (log2)” value (NH4Cl: - NH4Cl, 10 µM) was -0.000662; the “LC3 puncta (log2)” value (NH4Cl: - NH4Cl, 50 µM) was -0.156. Moreover, the “LC3 puncta (log2)” value (NH4Cl: - NH4Cl, 100 µM) is -0.539 and the “LC3 puncta (log2)” value (NH4Cl: - NH4Cl, 250 µM) is -0.492.

With `O=C(O)CC(O)C(=O)O` (stereo not given) [Malic acid], the “LC3 puncta (log2)” value is 0.364 (NH4Cl: + NH4Cl, 10 µM); 0.607 (NH4Cl: + NH4Cl, 50 µM); 0.449 (NH4Cl: + NH4Cl, 100 µM); 0.554 (NH4Cl: + NH4Cl, 250 µM); -0.0981 (NH4Cl: - NH4Cl, 10 µM); -0.0981 (NH4Cl: - NH4Cl, 50 µM). For the same compound, the “LC3 puncta (log2)” value by setting is: (NH4Cl: - NH4Cl, 100 µM) -0.0374; (NH4Cl: - NH4Cl, 250 µM) -0.0364.

For the compound `C/C1=C2N=C(/C=C3N=C(/C(C)=C4\[N-]C(C(CC(N)=O)C4(C)CCC(=O)NCC(C)OP(=O)([O-])OC4C(CO)OC(n5cnc6cc(C)c(C)cc65)C4O)C4(C)N=C1C(CCC(N)=O)C4(C)CC(N)=O)C(CCC(N)=O)C\3(C)C)C(CCC(N)=O)C/2(C)CC(N)=O.[CH3-].[Co+3]` (stereo not given) [Methylcobalamin], the “LC3 puncta (log2)” value (NH4Cl: + NH4Cl, 10 µM) was found to be 0.507; the “LC3 puncta (log2)” value (NH4Cl: + NH4Cl, 50 µM) was found to be 0.557; the “LC3 puncta (log2)” value (NH4Cl: + NH4Cl, 100 µM) amounted to 0.386; the “LC3 puncta (log2)” value (NH4Cl: + NH4Cl, 250 µM) was -0.454; the “LC3 puncta (log2)” value (NH4Cl: - NH4Cl, 10 µM) was -0.125; the “LC3 puncta (log2)” value (NH4Cl: - NH4Cl, 50 µM) was -0.236. Also, the “LC3 puncta (log2)” value (NH4Cl: - NH4Cl, 100 µM) was found to be 0.239 and the “LC3 puncta (log2)” value (NH4Cl: - NH4Cl, 250 µM) is -0.503.

For the compound `O=C(O)CCSCCC(=O)O` [3,3'-thiodipropionic acid], the “LC3 puncta (log2)” value by setting is: (NH4Cl: + NH4Cl, 10 µM) 0.309; (NH4Cl: + NH4Cl, 50 µM) 0.728; (NH4Cl: + NH4Cl, 100 µM) -0.445; (NH4Cl: + NH4Cl, 250 µM) 0.629; (NH4Cl: - NH4Cl, 10 µM) 0.0135; (NH4Cl: - NH4Cl, 50 µM) 0.045. The “LC3 puncta (log2)” value runs as follows: (NH4Cl: - NH4Cl, 100 µM) -0.0204; (NH4Cl: - NH4Cl, 250 µM) -0.062.

As to `C[C@@H](O)CCO` [(R)-1,3-Butylene Glycol], the “LC3 puncta (log2)” value by setting is: (NH4Cl: + NH4Cl, 10 µM) 0.22; (NH4Cl: + NH4Cl, 50 µM) -0.0174; (NH4Cl: + NH4Cl, 100 µM) 0.179; (NH4Cl: + NH4Cl, 250 µM) 0.0875; (NH4Cl: - NH4Cl, 10 µM) 0.0281; (NH4Cl: - NH4Cl, 50 µM) -0.261. Further, the “LC3 puncta (log2)” value (NH4Cl: - NH4Cl, 100 µM) is -0.294 and the “LC3 puncta (log2)” value (NH4Cl: - NH4Cl, 250 µM) is -0.184.

In the case of `C[n+]1cccc(C(=O)[O-])c1` [Trigonelline], the “LC3 puncta (log2)” value is, setting by setting: (NH4Cl: + NH4Cl, 10 µM) 0.266; (NH4Cl: + NH4Cl, 50 µM) 0.266; (NH4Cl: + NH4Cl, 100 µM) 0.112; (NH4Cl: - NH4Cl, 10 µM) 0.202; (NH4Cl: - NH4Cl, 50 µM) 0.619; (NH4Cl: - NH4Cl, 100 µM) 0.435. Also, the “LC3 puncta (log2)” value (NH4Cl: - NH4Cl, 250 µM) is -0.0876.

As for `O=C(O[C@@H]1Cc2c(O)cc(O)cc2O[C@@H]1c1ccc(O)c(O)c1)c1cc(O)c(O)c(O)c1` [(-)-Epicatechin gallate], the “LC3 puncta (log2)” value is 0.221 (NH4Cl: + NH4Cl, 10 µM); 0.493 (NH4Cl: + NH4Cl, 50 µM); 0.661 (NH4Cl: + NH4Cl, 100 µM); -0.0294 (NH4Cl: - NH4Cl, 10 µM); 0.253 (NH4Cl: - NH4Cl, 50 µM); 0.0524 (NH4Cl: - NH4Cl, 100 µM).

In the case of `Cc1ccc(C(C)C)c(O)c1` [Thymol], the “LC3 puncta (log2)” value (NH4Cl: + NH4Cl, 10 µM) is 0.947; the “LC3 puncta (log2)” value (NH4Cl: + NH4Cl, 50 µM) came out at 1.4; the “LC3 puncta (log2)” value (NH4Cl: + NH4Cl, 100 µM) amounted to 1.68; the “LC3 puncta (log2)” value (NH4Cl: + NH4Cl, 250 µM) was 1.55; the “LC3 puncta (log2)” value (NH4Cl: - NH4Cl, 10 µM) was determined as 0.0897; the “LC3 puncta (log2)” value (NH4Cl: - NH4Cl, 50 µM) was determined as 0.575. Moreover, the “LC3 puncta (log2)” value (NH4Cl: - NH4Cl, 100 µM) worked out at 0.869 and the “LC3 puncta (log2)” value (NH4Cl: - NH4Cl, 250 µM) turned out to be 1.65.

Regarding `CC(O)CC(=O)O` (stereo not given) [Sodium 3-hydroxybutyrate], the “LC3 puncta (log2)” value is, setting by setting: (NH4Cl: + NH4Cl, 10 µM) 0.123; (NH4Cl: + NH4Cl, 50 µM) 0.569; (NH4Cl: + NH4Cl, 100 µM) 0.8; (NH4Cl: + NH4Cl, 250 µM) 0.884; (NH4Cl: - NH4Cl, 10 µM) 0.0599; (NH4Cl: - NH4Cl, 50 µM) 0.278. Besides, the “LC3 puncta (log2)” value was determined as 0.0997 (NH4Cl: - NH4Cl, 100 µM) and 0.295 (NH4Cl: - NH4Cl, 250 µM).

Take `OCC(O)CO` [Glycerol]: the “LC3 puncta (log2)” value is 0.468 (NH4Cl: + NH4Cl, 10 µM); -0.233 (NH4Cl: + NH4Cl, 50 µM); 0.425 (NH4Cl: + NH4Cl, 100 µM); 0.628 (NH4Cl: + NH4Cl, 250 µM); 0.0358 (NH4Cl: - NH4Cl, 10 µM); -0.0173 (NH4Cl: - NH4Cl, 50 µM). For the same compound, the “LC3 puncta (log2)” value (NH4Cl: - NH4Cl, 100 µM) amounted to 0.118 and the “LC3 puncta (log2)” value (NH4Cl: - NH4Cl, 250 µM) was 0.027.
